From ChEMBL document CHEMBL5029159, “Reduction of Progranulin-Induced Breast Cancer Stem Cell Propagation by Sortilin-Targeting Cyclotriazadisulfonamide (CADA) Compounds” (J Med Chem, 2021)
Each block holds one molecule with its values, some of them ahead of it. The source made the active and inactive calls. The rule behind the calls is not given here.

Experiments:
MDA-MB-231 [1] = experiment: Effect on mammosphere-forming capacity in ER-negative human MDA-MB-231 cells measured after 48 hrs by microscopy; assay type: functional, cell-based
MCF7 [2] = experiment: Inhibition of mammosphere-forming capacity in ER-positive human MCF7 cells assessed as inhibition of progranulin-induced mammosphere formation at 4 uM measured after 48 hrs by microscopy; assay type: functional, cell-based
MDA-MB-231 [3] = experiment: Inhibition of mammosphere-forming capacity in ER-negative human MDA-MB-231 cells assessed inhibition of as progranulin-induced mammosphere formation at 1 uM measured after 48 hrs by microscopy; assay type: functional, cell-based
HEK-293T [4] = experiment: Down modulation of sortilin expression in HEK293T cells tranfected with GFP-tagged sortilin incubated for 24 hrs by flow cytometric analysis; assay type: functional, cell-based; conditions: Homo sapiens
MCF7 [5] = experiment: Effect on mammosphere-forming capacity in ER-positive human MCF7 cells measured after 48 hrs by microscopy; assay type: functional, cell-based
HEK-293T [6] = experiment: (§1) Cytotoxicity against human HEK293T cells assessed as reduction in cell viability after 72 hrs by alamar blue assay; assay type: cell-based; conditions: hek-293t, 72 h
[7] = Kinetic solubility of compound at pH 7.4 PBS buffer incubated for 30 mins by nephelometry; assay type: physicochemical; conditions: for Kinetic_solubility: buffer, pH 7.4, 0.5 h; for solubility kinetic at 0.5 h: PBS buffer, pH 7.4, read-out: Kinetic_solubility
[8] = Therapeutic index, ratio of CC50 for cytotoxicity against human HEK293T cells to ratio of IC50 for Down modulation of sortilin expression in HEK293T cells tranfected with GFP-tagged sortilin incubated for 24 hrs by flow cytometric analysis; assay type: toxicity, cell-based; conditions: read-out: TI
MDA-MB-231 [9] = experiment: Inhibition of mammosphere-forming capacity in ER-negative human MDA-MB-231 cells assessed as inhibition of progranulin-induced mammosphere formation at 4 uM measured after 48 hrs by microscopy; assay type: functional, cell-based
MCF7 [10] = experiment: Cytotoxicity against human MCF7 cells assessed as reduction in cell viability after 48 hrs by alamar blue assay; assay type: functional, cell-based
MDA-MB-231 [11] = experiment: Down modulation of sortilin expression in ERalpha-negative human MDA-MB-231 cells incubated for 48 hrs by Western blot analysis; assay type: ADME, cell-based; conditions: mda-mb-231, 48 h
MCF7 [12] = experiment: Inhibition of mammosphere-forming capacity in ER-positive human MCF7 cells assessed as inhibition of progranulin-induced mammosphere formation at 1 uM measured after 48 hrs by microscopy; assay type: functional, cell-based
MCF7 [13] = experiment: Down modulation of sortilin expression in ERalpha-positive human MCF7 cells incubated for 48 hrs by Western blot analysis; assay type: ADME, cell-based; conditions: mcf7, 48 h
MDA-MB-231 [14] = experiment: Cytotoxicity against human MDA-MB-231 cells assessed as reduction in cell viability after 48 hrs by alamar blue assay; assay type: functional, cell-based
[15] = as §1; assay type: cell-based, HEK-293T; conditions: HEK293T cells

- Activity (MDA-MB-231 [11]): Active
- Activity (MCF7 [13]): Dose-Dependent Effect
- Kinetic_solubility [7]: 55 µM
SMILES: C=C1CN(S(=O)(=O)c2ccc(C)cc2)CCCN(CCc2ccccc2)CCCN(S(=O)(=O)c2ccc(C)cc2)C1.Cl
- Activity (MCF7 [10]): inactive
- Activity (MDA-MB-231 [1]): inactive
- inhibition (MDA-MB-231 [3]): Active
- IC50 (HEK-293T [4]): 1 µM
- inhibition (MCF7 [12]): Active
- Activity (MCF7 [5]): inactive
- Activity (MDA-MB-231 [14]): inactive
- CC50 at 72 h [15]: 50 µM
- selectivity ratio at 24 h [8]: > 50

- solubility kinetic at 0.5 h [7]: 43 µM
SMILES: C=C1CN(S(=O)(=O)c2ccc(C)cc2)CCCN(Cc2ccccc2)CCCN(S(=O)(=O)c2ccc(C)cc2)C1.Cl [CYCLOTRIAZADISULFONAMIDE HYDROCHLORIDE]
- Activity (MDA-MB-231 [1]): inactive
- IC50 (HEK-293T [4]): 2.2 µM
- Activity (MCF7 [5]): inactive
- CC50 (HEK-293T [6]): > 50 µM
- selectivity ratio at 24 h [8]: > 23

- solubility kinetic at 0.5 h [7]: 61 µM
SMILES: C=C1CN(S(=O)(=O)c2ccc(C)cc2)CCc2cc(-c3ccccc3)cc(n2)CCN(S(=O)(=O)c2ccc(C)cc2)C1.Cl
- Activity (MDA-MB-231 [1]): inactive
- inhibition (MCF7 [2]): Active
- inhibition (MDA-MB-231 [3]): Active
- IC50 (HEK-293T [4]): 4 µM
- Activity (MCF7 [5]): inactive
- CC50 (HEK-293T [6]): > 50 µM
- selectivity ratio at 24 h [8]: > 12.5
- inhibition (MDA-MB-231 [9]): Active

Further lines, the molecule ahead of its results:

SMILES: C=C1CN(S(=O)(=O)c2ccc(C)cc2)CCCN(CC2CCCCC2)CCCN(S(=O)(=O)c2ccc(OCCO)cc2)C1.Cl
- Activity (MDA-MB-231 [1]): inactive
- inhibition (MCF7 [2]): Active
- inhibition (MDA-MB-231 [3]): Active
- IC50 (HEK-293T [4]): 9 µM
- Activity (MCF7 [5]): inactive
- CC50 (HEK-293T [6]): 15 µM
- Kinetic_solubility [7]: 59 µM
- selectivity ratio at 24 h [8]: 1.7
- inhibition (MDA-MB-231 [9]): Active

SMILES: C=C1CN(S(=O)(=O)c2ccc(C)cc2)CCCN(CC2CCCCC2)CCCN(S(=O)(=O)c2ccc(OC)cc2)C1.Cl
- Activity (MDA-MB-231 [1]): inactive
- IC50 (HEK-293T [4]): 0.5 µM
- Activity (MCF7 [5]): inactive
- CC50 (HEK-293T [6]): 1.4 µM
- Kinetic_solubility [7]: 57 µM
- selectivity ratio at 24 h [8]: 2.8

SMILES: C=C1CN(S(=O)(=O)c2ccc(N(C)C)cc2)CCCN(CC2CCCCC2)CCCN(S(=O)(=O)c2cccc3ccccc23)C1.Cl
- Activity (MCF7 [10]): inactive
- Activity (MDA-MB-231 [1]): inactive
- Activity (MDA-MB-231 [11]): Active
- inhibition (MDA-MB-231 [3]): Active
- IC50 (HEK-293T [4]): 1.9 µM
- inhibition (MCF7 [12]): Active
- Activity (MCF7 [5]): inactive
- Activity (MCF7 [13]): Dose-Dependent Effect
- Activity (MDA-MB-231 [14]): inactive
- CC50 at 72 h [15]: > 50 µM
- Kinetic_solubility [7]: 60 µM
- selectivity ratio at 24 h [8]: > 26

SMILES: C=C1CN(S(=O)(=O)c2ccc(OC)cc2)CCCN(CC2CCCCC2)CCCN(S(=O)(=O)c2ccc(N(C)C)cc2)C1.Cl
- Activity (MCF7 [10]): inactive
- Activity (MDA-MB-231 [1]): inactive
- Activity (MDA-MB-231 [11]): Active
- inhibition (MDA-MB-231 [3]): Active
- IC50 (HEK-293T [4]): 0.1 µM
- inhibition (MCF7 [12]): Active
- Activity (MCF7 [5]): inactive
- Activity (MCF7 [13]): Dose-Dependent Effect
- Activity (MDA-MB-231 [14]): inactive
- CC50 (HEK-293T [6]): 1 µM
- Kinetic_solubility [7]: 56 µM
- selectivity ratio at 24 h [8]: 10
